Drawing on ChEMBL document CHEMBL5729548, “ACLY inhibitors and uses thereof” (2023), this text covers IC50 for one molecule.

The experiment concerns the target T1, ATP-citrate synthase (Homo sapiens, UniProt P53396).
T1 sequence (P53396 whole entry): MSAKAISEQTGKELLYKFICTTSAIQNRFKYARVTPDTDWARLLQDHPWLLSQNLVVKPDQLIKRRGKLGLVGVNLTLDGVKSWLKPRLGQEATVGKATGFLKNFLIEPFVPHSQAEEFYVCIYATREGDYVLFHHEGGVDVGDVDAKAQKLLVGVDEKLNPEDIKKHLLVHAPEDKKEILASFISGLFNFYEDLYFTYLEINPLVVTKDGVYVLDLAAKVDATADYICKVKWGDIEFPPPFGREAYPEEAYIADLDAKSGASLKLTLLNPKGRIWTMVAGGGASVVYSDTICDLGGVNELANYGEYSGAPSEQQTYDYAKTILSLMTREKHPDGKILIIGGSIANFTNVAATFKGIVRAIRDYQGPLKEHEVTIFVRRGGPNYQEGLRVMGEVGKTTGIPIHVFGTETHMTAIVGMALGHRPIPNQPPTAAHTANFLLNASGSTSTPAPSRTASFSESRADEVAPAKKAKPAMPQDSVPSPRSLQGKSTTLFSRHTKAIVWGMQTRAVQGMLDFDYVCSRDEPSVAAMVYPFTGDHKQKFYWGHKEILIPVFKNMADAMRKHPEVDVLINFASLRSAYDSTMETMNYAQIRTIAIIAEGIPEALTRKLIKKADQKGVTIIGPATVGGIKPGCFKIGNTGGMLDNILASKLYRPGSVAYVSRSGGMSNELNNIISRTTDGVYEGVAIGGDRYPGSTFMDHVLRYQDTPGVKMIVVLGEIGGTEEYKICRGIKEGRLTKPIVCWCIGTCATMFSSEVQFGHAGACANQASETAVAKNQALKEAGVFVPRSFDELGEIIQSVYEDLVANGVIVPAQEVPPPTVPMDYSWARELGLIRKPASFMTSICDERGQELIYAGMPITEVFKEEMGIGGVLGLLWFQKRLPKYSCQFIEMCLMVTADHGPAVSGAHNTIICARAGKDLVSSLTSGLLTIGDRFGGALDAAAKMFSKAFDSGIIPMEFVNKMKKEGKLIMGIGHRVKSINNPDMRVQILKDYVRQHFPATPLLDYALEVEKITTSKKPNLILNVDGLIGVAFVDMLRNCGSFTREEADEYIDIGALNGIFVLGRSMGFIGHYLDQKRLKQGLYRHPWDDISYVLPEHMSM
The experiment is described as follows: ADP-Glo Assay: Materials and Instruments Used in the ADP-Glo AssayVendor Cat No.Materials ACL Sino Biological 11769-H07BCoANa2 Sigma C3144Potassium Citrate Sigma 89306ATP Promega V915BADP-GloTM Kinase Assay Promega V9102kitHEPES Life Technologies 15630080MgCl2 Sigma M1028Brij 35 detergent Merck 203728DTT Sigma 646563DMSO MP 196055Optiplate-384, White 384- Perkin Elmer 6007290well384 dilution ….

Each structure is given as a SMILES string. Where only a bound is given, the exact number is not on record here.

As to `O=C(c1cc(Cl)c(O)c(S(=O)(=O)Nc2cc(-c3cc4ccccc4s3)c(F)cc2OC(F)(F)F)c1)N1CCC1`, the IC50 – broadly, the point on the concentration scale where inhibition reaches its midpoint – was under 50 nM.
